The values below come from patent US7321027B2, “Small technetium-99m and rhenium labeled agents and methods for imaging tumors” (President and Fellows of Harvard College, priority 2000, dated 2008).

Series [1] concerns B16/F0 murine melanoma cells. Description: In-vitro tumor-cell uptake, melanoma cells. The following applies: for decrease in cell uptake, incubation temperature from 37° C. to 4° C.: 4° C. vs 37° C.; for maximal cell uptake: 37° C., B16/F0 cell line. The format is cell-based. On the procedure:
(§1) In-Vitro Tumor-Uptake Studies. Tumor-cell uptake studies in B16/F0 murine melanoma cells were performed with complexes Tc-(Compound A-D and H-M) at 37° C. and 4° C. Additionally, tumor-cell uptake of complex Tc-(Compound A) was investigated in another rapidly dividing MCF-7 human breast cancer cell line.
In-Vitro Cell Studies. Murine B16/F0 melanoma cells and human MCF-7 breast cancer cells were obtained from American Type Culture Collection, Manassas Va., (ATCC) and were grown in T-175 flasks in 14 mL Dulbecco's Modified Eagle Medium (D-MEM; Gibco, Life Technology, Gaithersburg, Md.) containing 4500 mg/L D-glucose, L-glutamine, and pyridoxine hydrochloride, 110 mg/L sodium pyruvate, 10% fetal bovine serum (FBS), 0.2% gentamicin and 0.5% penicillin-streptomycin solution. All cells were harvested from cell culture flasks by trypsinization with 1 mL trypsin-EDTA solution (0.25% trypsin, 1 mM EDTA×4 Na) (Gibco). After being washed with 12 mL Dulbecco's Phosphate-Buffered Saline (PBS) (Gibco), pH 7.2 (Ca^2+- and Mg^2+-free; g/L KCl, 0.20; KH2PO4, 0.20; NaCl, 8.00; Na2HPO4, 1.15), the cells were counted and resuspended in 8 mL S-MEM (Gibco) (Ca^2+ free, with reduced Mg^2+ content) and stored at 4° C. until use.
For in-vitro tumor-cell accumulation studies, 5×10^6 cells in polypropylene test tubes were incubated at 37° C. or 4° C., with intermittent agitation with 1-2 μCi (5 μL) ^99mTc-complex Tc-(Compound A-D) in a total volume of 350 μL S-MEM. At appropriate time intervals the tubes were vortexed and 8-μL samples were layered on 350 μL cold FBS in a 400-μL Eppendorf microcentrifuge tube. After centrifugation at 15,000 rpm for 2 min, the tubes were frozen in a dry ice-acetone bath. While still frozen, the bottom tip of the microcentrifuge tube containing the cell pellet was cut and placed in a counting tube. The remaining portion of the tube with the supernatant was placed in a separate counting tube. Both fractions were counted for radioactivity in a γ-counter (WALLAC, 1480 WIZARD 3″™). The amount of supernatant in the cell pellet was determined to be <1% in separate experiments. The percentage cell uptake of the ^99mTc-complex was calculated as: % uptake=[cpm(pellet)]/[cpm(pellet)+cpm(supernatant)]×100

The next series relates to B16/F0 cells. Description: Tumor-cell uptake in the presence of DTG. The format is cell-based, murine. Conditions: DTG 90 μM, 30 min prior, 37° C. An excerpt:
J. Labelled Compd. Radiopharm. 1994, 35, 242-244; Vilner, B. J.; John, C. S.; Bowen, W. D. Sigma-I and Sigma-2 Receptors Are Expressed in a Wide Variety of Human and Rodent Tumor Cell Lines. Cancer Res. 1995, 55, 408-413; and John, C. S.; Vilner, B. J.; Gulden, M. E.; Efange, S. M. N.; Langason, R. B.; Moody, T. W.; Bowen, W. D. Synthesis and Pharmacological Characterization of 4-[^125I]-N-(N-Benzylpiperidin-4-yl)-4-iodobenzamide: A High Affinity σ Receptor Ligand for Potential Imaging of Breast Cancer. […] Pre-incubation of the tumor cells with DTG (90 μM), 30 min prior to the uptake experiments with the ^99mTc-complexes, yields a lower tumor-cell uptake for complexes Tc-(Compound A) (29% less), Tc-(Compound C) (33% less), and Tc-(Compound D) (32% less) at 37° C. (FIG. 4). Additional dose-response experiments conducted with intact B16/F0 cells at 37° C. with Tc-(Compound C) and DTG as the inhibitor (FIG. 3) show a DTG concentration-dependent decrease in the uptake of the complex.
The effect of the inhibitor DTG on cell uptake of these complexes was studied by addition of the inhibitor at various concentrations to the cell suspension 30 min prior to addition of the ^99mTc-complexes. Fresh DTG stock solutions were made by dissolving DTG (3.0 mg, 12.5 μmol) in 0.38 mL PBS and 0.12 mL hydrochloric acid (0.1 N) and subjecting the mixture to ultrasound until a clear solution was obtained, followed by the addition of 0.50 mL FBS to produce a neutral solution at pH 7.4. The stock solutions were diluted by an appropriate amount of S-MEM, and aliquots between 5 μL and 25 μL were added to the cell suspension such that the final concentration of DTG was between 0.02 μM and 120 μM in a total cell suspension volume of 350 μL.

The test system of another series is melanoma. The following applies: 1 hour post injection; cited from earlier work.
For series [2], the system named is MCF-7 human breast cancer cell line. Description: In-vitro tumor-cell uptake, breast cancer cells. The format is cell-based. The following applies: 37° C., MCF-7 cell line. The method, then:
as §1
In-Vitro Cell Studies. […] After being washed with 12 mL Dulbecco's Phosphate-Buffered Saline (PBS) (Gibco), pH 7.2 (Ca^2+- and Mg^2+-free; g/L KCl, 0.20; KH2PO4, 0.20; NaCl, 8.00; Na2HPO4, 1.15), the cells were counted and resuspended in 8 mL S-MEM (Gibco) (Ca^2+ free, with reduced Mg^2+ content) and stored at 4° C. until use.
For in-vitro tumor-cell accumulation studies, 5×10^6 cells in polypropylene test tubes were incubated at 37° C. or 4° C., with intermittent agitation with 1-2 μCi (5 μL) ^99mTc-complex Tc-(Compound A-D) in a total volume of 350 μL S-MEM. […] Both fractions were counted for radioactivity in a γ-counter (WALLAC, 1480 WIZARD 3″™). The amount of supernatant in the cell pellet was determined to be <1% in separate experiments. The percentage cell uptake of the ^99mTc-complex was calculated as: % uptake=[cpm(pellet)]/[cpm(pellet)+cpm(supernatant)]×100

For the next series, the system named is B16/F0 murine melanoma. Description: In-vivo tumor uptake and biodistribution. Set-up: species or system C57B16 mice. Conditions: mouse, in vivo. The method, then:
In-Vivo Tumor Uptake. To study the tumor uptake of ^99mTc-complexes, Tc-(Compound A-D and J-K), in vivo, biodistribution experiments at 1 h and 6 h after their administration were carried out in C57B16 mice with palpable B16 melanoma nodules. The biodistribution data including melanoma/nontumor (M/NT) ratios for selected organs are summarized in Table 4 and 5 as percentage injected dose per gram ([…]).
Animal Studies. All animal experiments were performed in compliance with the Principles of Laboratory Animal Care (NIH publication #85-23, revised 1985). Biodistribution studies and tumor-uptake measurements were performed in C57B16 mice (15 to 20 g) bearing the B16/F0 murine melanoma on the hind limb. See for example the studies described in, which are hereby incorporated by reference, Brandau, W.; Niehoff, T.; Pulawski, P.; Jonas, M.; Dutschka, K.; Sciuk, J.; Coenen, H. H.; Schober, O. Structure Distribution Relationship of Iodine-123-Iodobenzamides as Tracers for the Detection of Melanotic Melanoma. J. Nucl. Med. 1996, 37, 1865-1871; Mohanmmed, A.; Nicholl, C.; Titsch, U.; Eisenhut, M. Radiojodinated N-(Alkylaminoalkyl)-Substituted 4-Methoxy-, 4-Hydroxy-, and 4-Aminobenzamides: Biological Investigations for the Improvement of Melanoma-Imaging Agents. Nucl. Med. Biol. 1997, 24, 373-380; Titsch, U.; Mohammed, A.; Wagner, S.; Oberdorfer, F.; Eisenhut, M. Syntheses of N-(2-Diethylaminoethyl)benzamides Suitable for ^99mTc Complexation. J. Labelled Compd. Radiopharm. 1997, 40, 416-418; Dittmann, H.; Coenen, H. H.; Zölzer, F.; Dutschka, K.; Brandau, W.; Streffer, C. In Vitro Studies on the Cellular Uptake of Melanoma Imaging Aminoalkyl-iodobenzamide Derivatives (ABA). Nucl. Med. Biol. 1999, 26, 51-56; and Michelot, J. M.; Moreau, M. F. C.; Veyre, A. J.; Bonafous, J. F.; Bacin, F. J.; Madelmont, J. C.; Bussiere, F.; Souteyrand, P. A.; Mauclaire, L. P.; Chossat, F. M.; Papon, J. M.; Labarre, P. G.; Kauffmann, Ph.; Plagne, R. J. Phase II Scintigraphic Clinical Trial of Malignant Melanoma and Metastases with Iodine-123-N-(2-Diethylaminoethyl 4-Iodobenzamide). J. Nucl. Med. 1993, 34, 1260-1266. The tumor cells (B16/F0), obtained from ATCC, were washed with PBS and transplanted subcutaneously on the left hind flank by an inoculation of 0.5×10^6 cells (0.1 mL). Ten to 14 days later the animals developed palpable tumor nodules 3 to 5 mm in diameter. The biodistribution studies were carried out by tail-vein injection of 25 to 30 μCi (0.05 to 0.1 mL) of the ^99mTc-labeled complexes Tc-(Compound A-D, H, J, K or M). At the designated time after tail-vein administration, the animals were weighed and sacrificed. The organs and tumors were harvested and, when appropriate, blotted dry, weighed, and counted in a gamma counter along with technetium-99m standards of the injected dose. The results are expressed as % ID/g tissue (Table 4 and 5)

As to `CCCCN(CCCC)CCCN1CC[S][99Tc]2(=[O])[S]CC[N]2C(=O)C1` (stereo not drawn) [Tc-(Compound D)], in series [1], the “decrease in cell uptake, incubation temperature from 37° C. to 4° C.” value is given as 23% and the maximal cell uptake came out at 68%. Further, in the series on B16/F0 cells, the “lower tumor-cell uptake after pre-incubation with DTG” value was 32%.
For `CCN(CC)CCNC(=O)c1ccc(CC2[N]3CC(C)(C)[S][Tc]34(#[N])[S]C(C)(C)C[N]4C2(C)C)cc1` (stereo not drawn) [Compound 1], in the series with melanoma, the melanoma uptake entry is “Compound 10.4% uptake % ID/g”.
For the compound `CCN(CC)CCNC(=O)c1ccc(CCNC2=[SH][Tc]3(#[N])([S]2)[S]C(NCCc2ccc(C(=O)NCCN(CC)CC)cc2)=[SH]3)cc1` [Compound 4], in the series on melanoma, the melanoma uptake entry is on record as “Compound 40.5% uptake % ID/g”.
`CCN(CC)CCCN1CC[S][99Tc]2(=[O])[S]CC[N]2C(=O)C1` (stereo not drawn) [Tc-(Compound C)] came in with a maximum cell uptake in series [2] of 17%. In series [1], the “decrease in cell uptake, incubation temperature from 37° C. to 4° C.” value was 77% and the maximal cell uptake is 62%. For the same compound, in the series on B16/F0 murine melanoma, the mel/blood ratio is on record as 19, the mel/lung ratio turned out to be 12.7 and the mel/spleen ratio amounted to 19. In addition, the “lower tumor-cell uptake after pre-incubation with DTG” value with B16/F0 cells turned out to be 33%.
